In patent US7141251B2, “Pharmacologically active strong acid solutions” (Cytorex Biosciences, inc., priority 2001, dated 2006):

Key:
[1] = in water; cited from earlier work
[2] = Example 27: patient with hypertension; conditions: 180/110 without medication

SMILES	Grade of Ionization (α) [1]	blood pressure [2]
O=C(O)CC(O)(CC(=O)O)C(=O)O [Formulation H8C6O7, citric acid]	α < 1	–
O=C(O)C(=O)O [Formulation H2C2O4, oxalic acid]	α = 1	–
CC(C)NCC(O)COc1ccc(CC(N)=O)cc1 (stereo not drawn) [Atenolol]	–	150/90
